Results: patent US10399994B2, “Compounds and methods for preventing or treating sensory hair cell death” (UNIVERSITY OF WASHINGTON, priority 2015, dated 2019)
“And” between values parts separate entries of the source, which are not always exact repeats. Equal values may be shown once. Where a name gives a salt, the structure may show the parent alone.

What was measured:
[1] = test system: hair cells; experiment: Neomycin Hair Cell Toxicity Assay in Zebrafish; assay type: in vivo
Description: Zebrafish are bred and newly fertilized embryos are collected the week prior and raised at 28.5° C. in petri dishes containing embryo medium. Newly hatched free-swimming larvae are fed paramecium and dry fish food at 4 days post fertilization (dpf) with lights on. For treatment, fish 5-7 dpf are transferred to cell culture baskets and place within a well of a 6-well plate containing 7 milliliters of 1× embryo medium. Typically, tests are done with ten fish per basket but work well with up to 50 fish. All treatment and wash volumes are 7 milliliters.
1. Fish are pre-treated with test compound for 1 hour. Concentrations between 0.010 to 25 micromolar of test compound are tested.
2. Treat with 200 micromolar neomycin (neomycin sulfate, Sigma, St. Louis, Mo., catalog #N1142)+ test compound for 30 minutes.
3. […]
5. […] The DASPEI staining of ten neuromasts (SO1, SO2, IO1, IO2, IO3, IO4, M2, MI1, MI2 and O2) on one side of an animal are evaluated. Each neuromast is scored for presence of DASPEI staining (score=2), reduced DASPEI staining (score=1) or absence of DASPEI staining (score=0). […] Average scores and standard deviations are calculated for animals in each treatment group. Scores are normalized to control group (vehicle only, no drug, no neomycin) and expressed as % hair cell survival. […] If less than 50% hair cells survive, the HC50 is not determined. […]

[2] = test system: hair cells; experiment: Cisplatin Hair Cell Toxicity Assay in Zebrafish; assay type: in vivo; conditions: cisplatin 50 μM for 24 hrs
Description: Zebrafish are bred and newly fertilized embryos are collected the week prior and raised at 28.5° C. in petri dishes containing embryo medium. Newly hatched free-swimming larvae are fed paramecium and dry fish food at 4 days post fertilization (dpf) with lights on. For treatment, fish 5-7 dpf are transferred to cell culture baskets and place within a well of a 6-well plate containing 7 milliliters of 1× embryo medium. Typically, tests are done with ten fish per basket but work well with up to 50 fish. All treatment and wash volumes are 7 milliliters. • 1. In a 48-well plate, place 10-12 fish/well in 300 μl of EM. • 2. Add ORC-13661 and vehicle control to each well at concentrations listed below. Swirl and place in incubator for 15 min. ORC-13661 concentrations tested: 0.103 μM, 0.308 μM, 0.925 μM, 2.78 μM, 8.33 μM. • 3. Add cisplatin 50 μM to pretreated and control wells. Swirl and place in incubator for 24 hrs. • 4. Place 1-2 drops of MS222 in each well to anesthetize fish, then aspirate treated EM. • 5. Add 300 μl/well of 4% paraformaldehyde to fix fish. Fix overnight at 4° C. or 2 hrs at room temperature (RT). • 6. Rinse wells with PBS for 15 min each 3 times. • 7. Add 300 μl/well of blocking solution for 1 hr at RT. • 8. Incubate with 300 μl/well of 1:400 mouse anti-Parvalbumin antibody overnight at 4° C. • 9. Rinse wells with PBS-T for 15 min each 3 times. • 10. […]

[3] = test system: rats; experiment: Auditory Brainstem Response (ABR) Assay; assay type: in vivo; conditions: Day 24 vs Day 0, FIG. 2
Description: Chronic treatment of rats with aminoglycosides (AGs) such as kanamycin or amikacin results in an elevation of ABR thresholds, typically most pronounced at higher frequencies. For rats, hearing is tested at a range of frequencies to determine the intensity of sound (measured in decibels) necessary to evoke a response. As hearing loss becomes more severe, a higher intensity is needed to evoke a response. Each rat serves as its own control; hearing thresholds are determined at each frequency prior to any treatment and then at 2 weeks after a 10-day course of AG treatment (or control drug exposures).
The ABR assay measures short latency field potentials recorded from the scalp of animals that were sedated or noninvasively immobilized. […] For each animal, hearing thresholds, wave 1 latencies and input-output functions for stimulus frequencies at 2, 4, 8, 16 and 32 kHz were measured prior to any treatment to determine the initial sensitivity and dynamic range of hearing, and then repeated at the end of drug treatment and at the end of the experiment (2-weeks after dosing). […]
ABR records were evaluated by a “blinded”, trained experimenter. Hearing loss (Threshold Shift) was determined by subtracting the threshold during pre-treatment (Day 0) from the final ABR threshold (Day 24; two weeks following treatment). […]

[4] = test system: kidney; experiment: Effect of Amikacin and Compound 9 on Kidney Function; assay type: in vivo, Fischer 344 rats; conditions: for creatinine clearance (CrCl) post-treatment compared to pretreatment: FIG. 3; for kidney histopathology damage score (0-4): FIG. 4
Description: The study consisted of three groups of Fischer 344 rats aged 6 weeks and weighing approximately 200 g at the start of the study. Group 1 consisted of six rats, randomly selected to receive amikacin only, Group 2 consisted of six rats chosen randomly to receive amikacin and compound 9, and Group 3 consisted of three rats, 2 rats given compound 9 and 1 rat given only 0.5% Methylcellulose, the diluent for compound 9. All animals receiving amikacin were given 320 mg/kg subcutaneously (SQ) from a freshly prepared solution of amikacin of 40 mg/mL. The compound 9 formualtion was prepared by weighing 13.08 mg of compound 9 dissolved in 12 mL of 0.5% MC in saline with vortexing, sonification and homogenization to obtain a solution with concentration at 12 mg/12 mL=1 mg/mL, dose volume is 5 mL/kg (5 mg/kg). The compound 9 solution was given by oral gavage at a dose of 5 mg/kg.
One day prior to the onset of dosing, blood was drawn from all rats for serum analysis and all rats were put into metabolic cages for 24 hour urine collection and analysis. All rats were returned to normal cages and allowed to eat and drink ad lib. All rats received their assigned treatments for 10 days and then were returned to metabolic cages for the 10th day. Three rats were randomly chosen from each of Group 1 and Group 2 to have additional blood draws at 30 min, 60 mn, 2 hr, 4 hr, 8 hr and 24 hr after the 10th dose for amikacin and compound 9 PK analysis. All rats had blood drawn for serum analysis at the end of day 10 and the 24 hour urine collected from day 10. After the final blood draw, all rats were euthanized and their kidneys removed and prepared for histopathology testing. The left kidneys were longitudinally sectioned, the right kidneys were cross sectioned. The pathologist read the slides, blinded to the group from which they were assigned. They graded viewed five different locations on each slide and gave each location a score for degree of damage: no damage (0 score); minimal (1-10%, 1 score), mild (11-20%, 2 score), moderate (21-50%, 3 score), or marked (51-100%, 4 score).
Previous studies have shown that aminoglycoside renal toxicity primarily affects the proximal and distal tubules of the kidney, eventually causing […] of the epithelial cells. The resulting damage causes, in part, decreased glomerular filtration rate (GFR) which may be a result of the tubular damage or partly through other mechanisms. The GFR was approximated using the creatinine clearance. […] The one-sided two-sample t-test p-value for the comparison of the amikacin only (Group 1) and amikacin+compound 9 (Group 2) are shown in a box between the two columns.

| Hearing loss (ABR Threshold Shift) ([3]; Amikacin alone SC 320 mg/kg/day for 10 days) | creatinine clearance (CrCl) post-treatment compared to pretreatment ([4]; Group 1: amikacin only 320 mg/kg SQ for 10 days) | Structure (SMILES) | EC50 ([1]; Danio rerio, concentration that would produce 50% hair cell survival, 1 hour pre-treatment, then 200 micromolar neomycin + test compound for 30 minutes, read-out: HC50 (the source's name)) [nM] | Max HC Protection ([1]; at 2.6 μM, 200 micromolar neomycin, % hair cell survival normalized to control) [% protection at 2.6 μM] | EC50 ([2]; Danio rerio, 15 min pretreatment, read-out: HC50 (the source's name)) [nM] | Max HC Protection ([2]; at 8.33 μM, hair cell counts as % control) [% protection at 8.33 μM] | Hearing loss (ABR Threshold Shift), high frequency ([3]; Amikacin SC 320 mg/kg/day + Compound 9 PO 5 mg/kg/day for 10 days) | creatinine clearance (CrCl) post-treatment compared to pretreatment ([4]; Group 2: amikacin 320 mg/kg SQ + compound 9 5 mg/kg oral gavage for 10 days) | kidney histopathology damage score (0-4) ([4]; amikacin + compound 9 treated rats, longitudinal and cross sectioning (values not assigned to section in text), vs amikacin only p<0.005, hydrochloride) | kidney histopathology damage score (0-4) ([4]; amikacin only rats, longitudinal and cross sectioning of the kidney) |
| --- | --- | --- | --- | --- | --- | --- | --- | --- | --- | --- |
|  |  | CN1[C@H]2CC[C@@H]1c1c(sc(NC(=O)Nc3ccc(Cl)cc3)c1C(N)=O)C2 [Compound 9, (4R,7S)-2-(3-(4-chlorophenyl)ureido)-9-methyl-5,6,7,8-tetrahydro-4H-4,7-epiminocyclohepta[b]thiophene-3-carboxamide hydrochloride] | < 1000 | 96 | < 1000 | 90 | robust protection | significantly different from baseline | 3.6 and 3.1 |  |
| hearing loss | significantly different from baseline | NCC[C@H](O)C(=O)N[C@@H]1C[C@H](N)[C@@H](O[C@H]2O[C@H](CN)[C@@H](O)[C@H](O)[C@H]2O)[C@H](O)[C@H]1O[C@H]1O[C@H](CO)[C@@H](O)[C@H](N)[C@H]1O [amikacin, reference compound] |  |  |  |  |  |  |  | 3.9 |
